Experimental data: patent publication US11628163B2, “1-piperidinepropionic acid for treating a fibrosing disease” (UNIVERSITÀ DEGLI STUDI DI PADOVA, priority 2017, dated 2023)
“Also recorded” adds a separate entry of the source.

Experiments:
SerpinB3 = SerpinB3 mRNA expression in HT29 tumor cells (real-time PCR); format: cell-based; settings: 24 hours
Method: HT29 tumor cells, constitutively expressing SerpinB3, were used, […] cells/well were seeded into 6-well plates and kept 24 hours prior to treatment in modified McCoy medium (Sigma-Aldrich, Milan, Italy) supplemented with heat-inactivated 10% fetal calf serum, (Sigma-Aldrich, Milan, Italy), 100 U/ mL penicillin, […] streptomycin, and 20 mM L-glutamine (Sigma-Aldrich, Milan, Italy),
Then, PPA (1′-piperidinepropionic acid) was added, at a concentration of 100 ng/ml alone or in combination with recombinant SerpinB3 (SB3) at a concentration of 200 ng/ml, whereas the medium alone (untreated HT-29 cells) was added into control wells. After 24 hours of treatment cells were harvested, and extraction of total cell RNA and reverse transcription were performed according to standard protocols. mRNA SerpinB3 levels were measured by real-time PCR (sense: 5′-GCAAATGCTCCAGAAGAAAG-3′; reverse 5′-CGA GGC AAA ATGAAAA AGA TG-3′) and the results were normalized on the basis of data obtained with housekeeping HPRT1 (sense 5′-TCAGGCAGTATAATCC AAAGATGGT-3′; reverse 5′-[…] -3′).

[1] = system: experimental murine model of steatohepatitis (NASH); assay: Murine model of steatohepatitis (NASH): methionine- and choline-deficient diet (MCD), SerpinB3-transgenic and wild-type (C57BL/7) mice; format: in vivo; settings: for liver histology: steatosis and lobular damage / relative liver weight (liver weight/body weight): MCD diet 8 weeks, i.p. daily from Week 4, PPA 0.01 μg/g or Curcumin 0.2 mg/g; for liver histology: steatosis and lobular damage: especially transgenic mice liver; for relative liver weight (liver weight/body weight): wild-type and SerpinB3-transgenic mice, more evident in transgenic mice
Method: PPA effect was also assessed in a murine model of fibrosing disease, in particular an experimental model of non-alcoholic steatohepatitis, which is a condition in which a fatty liver, associated with inflammation and fibrosis production, causes, among other things, a high risk of neoplastic transformation. In the study, both SerpinB3-transgenic mice and the respective wild-type (C57BL/7) strain were used, fed for 8 weeks with a methionine- and choline-deficient diet (MCD), which constitutes a recognized steatohepatitis induction model, or with a normal diet. MCD diet-treated transgenic and control mice groups starting from Week 4, were administered daily by intraperitoneal route, PPA (0.01 μg/g), or Curcumin (a molecule with a recognized anti-inflammatory and anti-fibrotic activity in animal models) as control, at standard concentrations (0.2 mg/g).
To assess PPA effect as SerpinB3 inhibitor in an experimental murine model of steatohepatitis (NASH), a condition with a high risk of hepatic tumor, both SerpinB3-transgenic mice and the respective wild-type (C57BL/7) strain were used.
The animals were fed for 8 weeks with a methionine- and choline-deficient diet (MCD), a recognized steatohepatitis induction model, or with a normal diet. MCD diet-treated transgenic and control mice groups, starting from Week 4, were administered daily, by intraperitoneal route, PPA (0.01 μg/g), or Curcumin (a molecule with a recognized anti-inflammatory and anti-fibrotic activity in animal models) as control, at the standard concentration of 0.2 mg/g. […] This effect was more evident in transgenic mice.

primary human monocytes = assay: Release of soluble CD163 (sCD163) by primary human monocytes; format: cell-based
Method: PPA effect was evaluated in this context as well, where primary monocytes incubated 1 week with SerpinB3 at a concentration of 200 ng/ml alone, or in association with PPA (100 ng/ml) were used. Monocytes kept in culture medium and monocytes treated with PPA alone at the same concentrations were used as controls.

[2] = SerpinB3 transgenic mice, MCD diet, PPA 0.01 μg/g i.p. daily from Week 4

Row | Molecule | SerpinB3 expression (mRNA) after induction from exogenous SerpinB3 (SerpinB3; PPA 100 ng/ml + recombinant SerpinB3 200 ng/ml) | SerpinB3 expression (mRNA), constitutive (SerpinB3; PPA 100 ng/ml alone, normalized to HPRT1) | liver histology: steatosis and lobular damage [1] | relative liver weight (liver weight/body weight) [1] | IL-1 beta gene expression [1, 2] | Mcp1 gene expression [1, 2] | TNF-alpha gene expression [1, 2] | alpha-SMA (marker of stellate cell activation) gene expression ([1]; both strains (wild-type and SerpinB3-transgenic), MCD diet, PPA 0.01 μg/g i.p. daily from Week 4) | sCD163 release in the culture medium after stimulation with SerpinB3 (primary human monocytes; primary monocytes, 1 week, SerpinB3 200 ng/ml + PPA 100 ng/ml) | spontaneous release of sCD163 (primary human monocytes; primary monocytes, PPA alone 100 ng/ml, compared with untreated monocytes) | liver histology: steatosis and lobular damage ([1]; listed as curcumin) | relative liver weight (liver weight/body weight) ([1]; listed as curcumin) | reduction of the inflammatory response ([1]; MCD diet, Curcumin 0.2 mg/g i.p. daily from Week 4) | SerpinB3 expression (mRNA) after treatment with exogenous SerpinB3 (SerpinB3; recombinant SerpinB3 200 ng/ml) | release of sCD163 induced by SerpinB3 (primary human monocytes; primary human monocytes, SerpinB3 200 ng/ml, preliminary results)
1 | O=C(O)CCN1CCCCC1 [PPA, 1-piperidinepropionic acid] | significantly reduce | significantly reduce; also recorded: inhibit SerpinB3 synthesis | reduced; also recorded: more marked steatosis, associated with a higher relative liver weight, compared to mice MCD diet-fed, but treated with PPA or curcumin | reduced; also recorded: higher relative liver weight, compared to mice MCD diet-fed, but treated with PPA or curcumin; also recorded: higher relative liver weight (liver weight/body weight) after MCD diet, compared to mice treated with the same diet | significant decrease | significant decrease | increase was non-evident; also recorded: increase proved not evident | marked reduction | markedly reduced | reduces |  |  |  |  | 
2 | COc1cc(/C=C/C(=O)CC(=O)/C=C/c2ccc(O)c(OC)c2)ccc1O [Curcumin, reference compound] |  |  | reduced |  |  |  |  |  |  |  | more marked steatosis, associated with a higher relative liver weight, compared to mice MCD diet-fed, but treated with PPA or curcumin | higher relative liver weight, compared to mice MCD diet-fed, but treated with PPA or curcumin | obtained also with curcumin |  | 
3 | SerpinB3: recombinant SerpinB3 (Squamous Cell Carcinoma Antigen, SCCA1), a serine protease inhibitor, added as exogenous stimulus (protein, UniProt P29508 1-390, looked up) Serpin B3: MNSLSEANTKFMFDLFQQFRKSKENNIFYSPISITSALGMVLLGAKDNTAQQIKKVLHFDQVTENTTGKAATYHVDRSGNVHHQFQKLLTEFNKSTDAYELKIANKLFGEKTYLFLQEYLDAIKKFYQTSVESVDFANAPEESRKKINSWVESQTNEKIKNLIPEGNIGSNTTLVLVNAIYFKGQWEKKFNKEDTKEEKFWPNKNTYKSIQMMRQYTSFHFASLEDVQAKVLEIPYKGKDLSMIVLLPNEIDGLQKLEEKLTAEKLMEWTSLQNMRETRVDLHLPRFKVEESYDLKDTLRTMGMVDIFNGDADLSGMTGSRGLVLSGVLHKAFVEVTEEGAEAAAATAVVGFGSSPTSTNEEFHCNHPFLFFIRQNKTNSILFYGRFSSP |  |  |  |  |  |  |  |  |  |  |  |  |  | increased | induces the release
